Tests used:
Format in all cases: cell-based
[1] = target: KDR (phospho-KDR, VEGF165-stimulated HUVEC cells) (Homo sapiens (Human), UniProt P35968); assay: KDR autophosphorylation ELISA in HUVEC cells (Example G); details: cellular activity; KDR autophosphorylation ELISA in HUVEC cells
Outline: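 HUVEC cells, serum-starved 24 h, were treated 1 h with an 8-point compound dilution (0.3% DMSO) and then stimulated with 100 ng/mL VEGF165 for 5 min. Phospho-KDR in lysates was quantified by sandwich ELISA against a phospho-KDR standard. IC50 from a 4-parameter logistic fit, normalised between stimulated DMSO and unstimulated controls.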

[2] = target: Met (phospho-Met, HGF-stimulated PC-3 prostate cancer cells) (Homo sapiens (Human), UniProt P08581); assay: Met autophosphorylation ELISA in PC-3 cells (Example F); details: cellular activity; Met autophosphorylation ELISA in PC-3 cells; read-out: c-Met IC50
Chain of Met (phospho-Met, HGF-stimulated PC-3 prostate cancer cells) (P08581 25-1390): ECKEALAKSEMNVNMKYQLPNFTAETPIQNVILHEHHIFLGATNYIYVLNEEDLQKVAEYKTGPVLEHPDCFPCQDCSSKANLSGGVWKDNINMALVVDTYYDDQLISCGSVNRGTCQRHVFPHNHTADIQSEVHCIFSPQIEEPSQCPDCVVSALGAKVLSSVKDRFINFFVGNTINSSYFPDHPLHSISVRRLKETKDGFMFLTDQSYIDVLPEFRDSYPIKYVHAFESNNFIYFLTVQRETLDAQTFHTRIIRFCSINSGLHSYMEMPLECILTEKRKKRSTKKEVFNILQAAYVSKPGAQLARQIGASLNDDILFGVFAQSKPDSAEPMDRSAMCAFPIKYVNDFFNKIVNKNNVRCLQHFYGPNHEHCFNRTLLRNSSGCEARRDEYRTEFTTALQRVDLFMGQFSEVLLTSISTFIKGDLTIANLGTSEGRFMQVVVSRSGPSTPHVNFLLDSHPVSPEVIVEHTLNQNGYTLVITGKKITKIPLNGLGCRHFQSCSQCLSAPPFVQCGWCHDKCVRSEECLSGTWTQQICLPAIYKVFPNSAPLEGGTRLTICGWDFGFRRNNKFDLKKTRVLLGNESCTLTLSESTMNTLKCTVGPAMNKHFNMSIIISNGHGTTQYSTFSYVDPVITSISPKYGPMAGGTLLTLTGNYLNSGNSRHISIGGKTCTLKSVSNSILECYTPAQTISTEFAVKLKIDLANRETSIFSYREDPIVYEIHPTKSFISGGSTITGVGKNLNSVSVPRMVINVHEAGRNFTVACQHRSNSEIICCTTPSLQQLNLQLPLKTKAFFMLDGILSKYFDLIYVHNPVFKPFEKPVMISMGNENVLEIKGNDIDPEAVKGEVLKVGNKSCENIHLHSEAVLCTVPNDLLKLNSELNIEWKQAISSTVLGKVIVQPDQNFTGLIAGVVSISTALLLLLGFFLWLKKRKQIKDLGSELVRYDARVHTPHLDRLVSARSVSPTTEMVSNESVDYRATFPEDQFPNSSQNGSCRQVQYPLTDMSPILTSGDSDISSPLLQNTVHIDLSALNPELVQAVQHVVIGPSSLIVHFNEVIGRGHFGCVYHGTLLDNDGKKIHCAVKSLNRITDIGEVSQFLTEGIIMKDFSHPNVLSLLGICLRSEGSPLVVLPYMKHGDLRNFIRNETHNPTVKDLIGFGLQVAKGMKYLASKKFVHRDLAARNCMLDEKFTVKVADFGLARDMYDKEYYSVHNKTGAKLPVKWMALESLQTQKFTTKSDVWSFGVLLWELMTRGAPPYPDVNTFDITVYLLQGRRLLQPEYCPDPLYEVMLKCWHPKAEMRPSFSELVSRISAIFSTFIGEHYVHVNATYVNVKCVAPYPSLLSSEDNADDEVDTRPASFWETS
Outline: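 IC50 values derive from a 4-parameter logistic fit of phospho-Met (panTyr) sandwich ELISA signals in PC-3 lysates, scaled between DMSO and reference-inhibitor wells. Cells, starved 3 h in serum-free medium, had 1 h compound exposure (8 doses, 0.3% DMSO) before 10 min stimulation with 100 ng/mL HGF.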

[3] = target: Mer (phospho-Mer, MERTK-transfected 293A cells) (Homo sapiens (Human), UniProt Q12866); assay: Mer autophosphorylation ELISA in transient transfected 293A cells (Example H); details: cellular activity; Mer autophosphorylation ELISA in transient transfected 293A cells
Chain of Mer (phospho-Mer, MERTK-transfected 293A cells) (Q12866 21-999): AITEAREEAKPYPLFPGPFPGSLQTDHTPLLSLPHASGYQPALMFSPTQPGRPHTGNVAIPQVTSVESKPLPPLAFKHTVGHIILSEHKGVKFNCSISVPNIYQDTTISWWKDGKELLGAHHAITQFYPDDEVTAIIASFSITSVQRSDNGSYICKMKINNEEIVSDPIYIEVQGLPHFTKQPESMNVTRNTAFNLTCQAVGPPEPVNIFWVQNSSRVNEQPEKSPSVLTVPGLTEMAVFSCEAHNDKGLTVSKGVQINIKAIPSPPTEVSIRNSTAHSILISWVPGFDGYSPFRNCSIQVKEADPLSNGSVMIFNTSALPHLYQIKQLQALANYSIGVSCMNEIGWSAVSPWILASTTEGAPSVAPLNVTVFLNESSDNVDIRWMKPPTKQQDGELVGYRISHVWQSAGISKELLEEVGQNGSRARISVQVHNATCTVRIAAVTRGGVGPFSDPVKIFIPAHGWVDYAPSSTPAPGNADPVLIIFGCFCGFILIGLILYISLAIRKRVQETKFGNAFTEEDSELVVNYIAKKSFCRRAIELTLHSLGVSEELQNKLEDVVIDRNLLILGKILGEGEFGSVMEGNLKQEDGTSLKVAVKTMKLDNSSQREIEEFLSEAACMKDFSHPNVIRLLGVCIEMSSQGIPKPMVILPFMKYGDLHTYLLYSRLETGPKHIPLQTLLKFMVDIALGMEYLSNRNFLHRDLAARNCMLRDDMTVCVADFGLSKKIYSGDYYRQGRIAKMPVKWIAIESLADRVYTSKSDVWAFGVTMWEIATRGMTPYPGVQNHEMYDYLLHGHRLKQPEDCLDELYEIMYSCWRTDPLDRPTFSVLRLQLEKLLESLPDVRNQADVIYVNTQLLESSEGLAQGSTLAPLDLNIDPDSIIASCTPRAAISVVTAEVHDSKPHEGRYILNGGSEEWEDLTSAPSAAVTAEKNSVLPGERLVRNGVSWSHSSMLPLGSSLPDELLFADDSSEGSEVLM
Outline: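 Human MERTK transiently transfected into 293A cells; compounds as 8-point dose curve in serum-free medium (0.3% DMSO final), 1 h. Lysates assayed by phospho-Mer sandwich ELISA against phospho-Mer standard; DMSO = 100%, reference inhibitor = 0% activity; IC50 from 4-parameter logistic fit.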

[4] = target: AXL (phospho-AXL, Gas6-stimulated A-172 glioblastoma cells) (Homo sapiens (Human), UniProt P30530); assay: AXL autophosphorylation ELISA in A-172 cells (Example E); details: cellular activity; AXL autophosphorylation ELISA in A-172 cells; read-out: Axl IC50
Chain of AXL (phospho-AXL, Gas6-stimulated A-172 glioblastoma cells) (P30530 26-894): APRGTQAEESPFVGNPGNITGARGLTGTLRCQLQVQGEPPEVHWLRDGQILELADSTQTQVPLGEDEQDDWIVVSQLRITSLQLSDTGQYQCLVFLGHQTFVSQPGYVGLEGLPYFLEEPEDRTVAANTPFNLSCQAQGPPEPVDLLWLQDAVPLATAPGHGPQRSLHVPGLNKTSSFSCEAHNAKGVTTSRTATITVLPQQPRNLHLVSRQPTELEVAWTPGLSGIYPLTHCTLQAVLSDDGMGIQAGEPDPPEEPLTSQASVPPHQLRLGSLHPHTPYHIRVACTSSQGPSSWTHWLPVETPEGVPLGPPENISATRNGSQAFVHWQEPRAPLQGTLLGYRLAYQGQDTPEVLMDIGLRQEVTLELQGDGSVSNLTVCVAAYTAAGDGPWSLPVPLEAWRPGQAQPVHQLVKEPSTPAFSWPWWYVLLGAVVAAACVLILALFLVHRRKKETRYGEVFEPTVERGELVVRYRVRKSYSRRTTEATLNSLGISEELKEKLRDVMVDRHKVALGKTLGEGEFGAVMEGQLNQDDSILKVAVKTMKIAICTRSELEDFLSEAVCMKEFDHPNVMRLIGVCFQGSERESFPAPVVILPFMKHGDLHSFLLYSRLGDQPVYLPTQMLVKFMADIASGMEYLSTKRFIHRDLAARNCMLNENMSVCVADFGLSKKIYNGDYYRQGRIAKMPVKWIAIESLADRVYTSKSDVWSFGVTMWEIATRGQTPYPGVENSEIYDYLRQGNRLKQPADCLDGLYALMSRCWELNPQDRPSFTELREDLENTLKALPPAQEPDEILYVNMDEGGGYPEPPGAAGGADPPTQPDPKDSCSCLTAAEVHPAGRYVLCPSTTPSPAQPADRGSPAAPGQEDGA
Outline: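 Phospho-AXL in lysates was quantified by ELISA, normalised to DMSO (100%) and reference inhibitor (0%) controls. IC50 by 4-parameter logistic fit.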

Chain of KDR (phospho-KDR, VEGF165-stimulated HUVEC cells) (P35968 20-1356): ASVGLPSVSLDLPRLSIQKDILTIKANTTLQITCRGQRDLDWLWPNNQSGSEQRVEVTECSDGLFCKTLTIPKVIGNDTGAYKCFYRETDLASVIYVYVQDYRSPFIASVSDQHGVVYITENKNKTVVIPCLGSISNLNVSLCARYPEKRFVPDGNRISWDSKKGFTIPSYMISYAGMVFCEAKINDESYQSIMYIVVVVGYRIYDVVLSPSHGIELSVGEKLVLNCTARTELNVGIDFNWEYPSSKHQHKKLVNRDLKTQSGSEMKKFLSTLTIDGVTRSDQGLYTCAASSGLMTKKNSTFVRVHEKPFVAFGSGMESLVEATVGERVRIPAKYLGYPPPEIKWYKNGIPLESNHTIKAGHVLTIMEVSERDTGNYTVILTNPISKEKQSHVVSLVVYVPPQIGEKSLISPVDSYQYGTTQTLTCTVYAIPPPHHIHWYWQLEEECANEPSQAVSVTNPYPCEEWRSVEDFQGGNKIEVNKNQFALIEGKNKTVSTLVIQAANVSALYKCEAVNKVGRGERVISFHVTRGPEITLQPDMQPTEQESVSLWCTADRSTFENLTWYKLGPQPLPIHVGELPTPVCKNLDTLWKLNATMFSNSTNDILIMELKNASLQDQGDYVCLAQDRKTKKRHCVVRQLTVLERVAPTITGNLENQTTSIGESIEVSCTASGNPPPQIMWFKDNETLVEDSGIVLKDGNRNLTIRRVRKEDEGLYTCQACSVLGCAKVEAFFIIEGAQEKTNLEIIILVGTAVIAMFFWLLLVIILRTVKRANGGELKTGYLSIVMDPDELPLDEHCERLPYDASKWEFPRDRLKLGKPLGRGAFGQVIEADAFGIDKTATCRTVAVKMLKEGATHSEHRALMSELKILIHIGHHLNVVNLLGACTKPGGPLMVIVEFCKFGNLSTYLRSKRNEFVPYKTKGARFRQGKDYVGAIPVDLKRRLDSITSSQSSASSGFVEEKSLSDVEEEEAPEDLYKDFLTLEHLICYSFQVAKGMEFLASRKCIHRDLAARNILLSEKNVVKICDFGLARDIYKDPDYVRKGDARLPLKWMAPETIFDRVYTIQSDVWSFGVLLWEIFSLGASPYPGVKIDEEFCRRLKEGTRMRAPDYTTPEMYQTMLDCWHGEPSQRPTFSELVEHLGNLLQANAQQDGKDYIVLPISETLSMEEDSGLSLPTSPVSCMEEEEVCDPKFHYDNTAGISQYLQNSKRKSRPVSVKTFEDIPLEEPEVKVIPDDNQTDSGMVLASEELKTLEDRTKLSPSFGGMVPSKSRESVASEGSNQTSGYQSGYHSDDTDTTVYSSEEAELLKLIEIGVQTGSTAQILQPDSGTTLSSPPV

| IC50 [1] [nM] | IC50 [2] [nM] | IC50 [3] [nM] | IC50 [4] [nM] | Structure (SMILES) |
| --- | --- | --- | --- | --- |
| > 300 | < 100 | < 100 | < 100 | COc1cc2nccc(Oc3ccc(NC(=O)c4nc(C)cn(-c5ccc(F)cc5)c4=O)cc3F)c2nc1OC [Compound 684, N-[4-[(6,7-dimethoxy-1,5-naphthyridin-4-yl)oxy]-3-fluorophenyl]-4-(4-fluorophenyl)-6-methyl-3-oxopyrazine-2-carboxamide] |
| > 300 | < 100 | < 100 | < 100 | COc1cnc2c(Oc3ccc(NC(=O)c4cn(C)c(C5CC5)c(-c5ccc(F)cc5)c4=O)cc3F)ccnc2c1 [Compound 685, 6-cyclopropyl-N-[3-fluoro-4-[(7-methoxy-1,5-naphthyridin-4-yl)oxy]phenyl]-5-(4-fluorophenyl)-1-methyl-4-oxopyridine-3-carboxamide] |
| < 100 | < 100 | < 100 | < 100 | COc1cnc2c(Oc3ccc(NC(=O)c4c(C)nc(C)c(-c5ccc(F)cc5OC)c4O)cc3F)ccnc2c1 [Compound 686, N-[3-fluoro-4-[(7-methoxy-1,5-naphthyridin-4-yl)oxy]phenyl]-5-(4-fluoro-2-methoxyphenyl)-4-hydroxy-2,6-dimethylpyridine-3-carboxamide] |
| < 100 | < 100 | < 100 | < 100 | COc1cnc2c(Oc3ccc(NC(=O)c4c(C)nc(C)c(-c5ccc(F)c(F)c5)c4O)cc3F)ccnc2c1 [Compound 687, 5-(3,4-difluorophenyl)-N-[3-fluoro-4-[(7-methoxy-1,5-naphthyridin-4-yl)oxy]phenyl]-4-hydroxy-2,6-dimethylpyridine-3-carboxamide] |
| < 100 | < 100 | < 100 | < 100 | COc1cnc2c(Oc3ccc(NC(=O)c4c(C)nc(C)c(-c5ccc(F)c(OC)c5)c4O)cc3F)ccnc2c1 [Compound 688, N-[3-fluoro-4-[(7-methoxy-1,5-naphthyridin-4-yl)oxy]phenyl]-5-(4-fluoro-3-methoxyphenyl)-4-hydroxy-2,6-dimethylpyridine-3-carboxamide] |
| < 100 | < 100 | < 100 | < 100 | COc1cnc2c(Oc3ccc(NC(=O)c4c(C)nc(C)c(-c5ccc(F)c(C)c5)c4O)cc3F)ccnc2c1 [Compound 689, N-[3-fluoro-4-[(7-methoxy-1,5-naphthyridin-4-yl)oxy]phenyl]-5-(4-fluoro-3-methylphenyl)-4-hydroxy-2,6-dimethylpyridine-3-carboxamide] |
| > 300 | > 300 | 100 to 300 | > 300 | COc1cnc2c(Oc3ccc(NC(=O)c4c(C)nc(C)c(-c5ccc(C(C)C)cc5)c4O)cc3F)ccnc2c1 [Compound 690, N-[3-fluoro-4-[(7-methoxy-1,5-naphthyridin-4-yl)oxy]phenyl]-4-hydroxy-2,6-dimethyl-5-(4-propan-2-ylphenyl)pyridine-3-carboxamide] |
| < 100 | < 100 | < 100 | 100 to 300 | COc1ccc(-c2c(C)nc(C)c(C(=O)Nc3ccc(Oc4ccnc5cc(OC)cnc45)c(F)c3)c2O)c(F)c1 [Compound 691, N-[3-fluoro-4-[(7-methoxy-1,5-naphthyridin-4-yl)oxy]phenyl]-5-(2-fluoro-4-methoxyphenyl)-4-hydroxy-2,6-dimethylpyridine-3-carboxamide] |
| < 100 | < 100 | < 100 | 100 to 300 | COc1cnc2c(Oc3ccc(NC(=O)c4c(C)nc(C)c(-c5ccc(OC)c(C)c5)c4O)cc3F)ccnc2c1 [Compound 692, N-[3-fluoro-4-[(7-methoxy-1,5-naphthyridin-4-yl)oxy]phenyl]-4-hydroxy-5-(4-methoxy-3-methylphenyl)-2,6-dimethylpyridine-3-carboxamide] |
| < 100 | 100 to 300 | < 100 | > 300 | COc1cnc2c(Oc3ccc(NC(=O)c4c(C)nc(C)c(-c5ccc(OC)c(F)c5)c4O)cc3F)ccnc2c1 [Compound 693, N-[3-fluoro-4-[(7-methoxy-1,5-naphthyridin-4-yl)oxy]phenyl]-5-(3-fluoro-4-methoxyphenyl)-4-hydroxy-2,6-dimethylpyridine-3-carboxamide] |
| > 300 | 100 to 300 | < 100 | > 300 | COc1cnc2c(Oc3ccc(NC(=O)c4c(C)nc(C)c(-c5ccc(S(C)(=O)=O)cc5)c4O)cc3F)ccnc2c1 [Compound 694, N-[3-fluoro-4-[(7-methoxy-1,5-naphthyridin-4-yl)oxy]phenyl]-4-hydroxy-2,6-dimethyl-5-(4-methylsulfonylphenyl)pyridine-3-carboxamide] |
| < 100 | < 100 | < 100 | > 300 | COc1ccc(-c2c(C)nc(C)c(C(=O)Nc3ccc(Oc4ccnc5cc(OC)cnc45)c(F)c3)c2O)c(OC)c1 [Compound 695, 5-(2,4-dimethoxyphenyl)-N-[3-fluoro-4-[(7-methoxy-1,5-naphthyridin-4-yl)oxy]phenyl]-4-hydroxy-2,6-dimethylpyridine-3-carboxamide] |
| < 100 | 100 to 300 | < 100 | > 300 | COc1ccc(-c2c(C)ncc(C(=O)Nc3ccc(Oc4ccnc5cc(OC)cnc45)c(F)c3)c2O)c(OC)c1 [Compound 696, 5-(2,4-dimethoxyphenyl)-N-[3-fluoro-4-[(7-methoxy-1,5-naphthyridin-4-yl)oxy]phenyl]-4-hydroxy-6-methylpyridine-3-carboxamide] |
| > 300 | 100 to 300 | < 100 | > 300 | COc1cnc2c(Oc3ccc(NC(=O)c4cnc(C)c(-c5ccc(S(C)(=O)=O)cc5)c4O)cc3F)ccnc2c1 [Compound 697, N-[3-fluoro-4-[(7-methoxy-1,5-naphthyridin-4-yl)oxy]phenyl]-4-hydroxy-6-methyl-5-(4-methylsulfonylphenyl)pyridine-3-carboxamide] |
| < 100 | > 300 | < 100 | > 300 | COc1cnc2c(Oc3ccc(NC(=O)c4cnc(C)c(-c5ccc(OC)c(F)c5)c4O)cc3F)ccnc2c1 [Compound 698, N-[3-fluoro-4-[(7-methoxy-1,5-naphthyridin-4-yl)oxy]phenyl]-5-(3-fluoro-4-methoxyphenyl)-4-hydroxy-6-methylpyridine-3-carboxamide] |
| < 100 | 100 to 300 | < 100 | > 300 | COc1cnc2c(Oc3ccc(NC(=O)c4cnc(C)c(-c5ccc(OC)c(C)c5)c4O)cc3F)ccnc2c1 [Compound 699, N-[3-fluoro-4-[(7-methoxy-1,5-naphthyridin-4-yl)oxy]phenyl]-4-hydroxy-5-(4-methoxy-3-methylphenyl)-6-methylpyridine-3-carboxamide] |
| < 100 | < 100 | < 100 | > 300 | COc1ccc(-c2c(C)ncc(C(=O)Nc3ccc(Oc4ccnc5cc(OC)cnc45)c(F)c3)c2O)c(F)c1 [Compound 700, N-[3-fluoro-4-[(7-methoxy-1,5-naphthyridin-4-yl)oxy]phenyl]-5-(2-fluoro-4-methoxyphenyl)-4-hydroxy-6-methylpyridine-3-carboxamide] |
| < 100 | < 100 | < 100 | < 100 | COc1cnc2c(Oc3ccc(NC(=O)c4cnc(C)c(-c5ccc(F)c(C)c5)c4O)cc3F)ccnc2c1 [Compound 701, N-[3-fluoro-4-[(7-methoxy-1,5-naphthyridin-4-yl)oxy]phenyl]-5-(4-fluoro-3-methylphenyl)-4-hydroxy-6-methylpyridine-3-carboxamide] |
| 100 to 300 | < 100 | < 100 | < 100 | COc1cc2nccc(Oc3ccc(NC(=O)c4c(C)n(CC(F)F)cc(-c5ccc(F)cc5)c4=O)cc3F)c2nc1OC [Compound 702, 1-(2,2-difluoroethyl)-N-[4-[(6,7-dimethoxy-1,5-naphthyridin-4-yl)oxy]-3-fluorophenyl]-5-(4-fluorophenyl)-2-methyl-4-oxopyridine-3-carboxamide] |
| < 100 | < 100 | < 100 | < 100 | COCCOc1cc2nccc(Oc3ccc(NC(=O)c4c(C)ccn(-c5ccc(F)cc5)c4=O)cc3F)c2nc1OC [Compound 703, N-[3-fluoro-4-[[6-methoxy-7-(2-methoxyethoxy)-1,5-naphthyridin-4-yl]oxy]phenyl]-1-(4-fluorophenyl)-4-methyl-2-oxopyridine-3-carboxamide] |
